According to patent US11213495B2, “Method and composition for decreasing the psychotomimetic side effect and addictive disorder of ketamine” (NATIONAL HEALTH RESEARCH INSTITUTES, priority 2016, dated 2022):
Entries after “also recorded” stand apart in the source; their conditions may differ.

Columns and labels:
Format in all cases: in vivo
[1] = tested on: Male ICR mice; assay: Novelty suppressed feeding test (NSF); settings: 1 h prior to test, vs saline-treated mice
Description: NSF test consisted of food-depriving mice overnight (24 hours). The test drug (10, 20 and 30 mg/kg), ketamine (10 mg/kg) or saline was administered 1 h prior to the test. At the time of testing, a single food pellet placed in the middle of a novel environment (a test box 40×40×40 cm). The latency to start feeding was used as a measure for depressive-like or anxiety-like behavior.

[2] = tested on: Male ICR mice; assay: Emergence test
Description: The emergence test was examined in a test box (35×35×30 cm) contained an aluminum cylinder (10 cm deep×6.5 cm diameter) located lengthwise along one wall, with the open end 10 cm from the corner. The test drug (0, 30 and 100 mg/kg) or ketamine (10 mg/kg) was administered 30 min prior to the test. Mice were placed into the cylinder and tested for 10 min and scored three behavioral parameters: the latency to leave the cylinder, the number of entries into the cylinder and the total time spent inside the cylinder.

[3] = tested on: Male ICR mice; assay: Rotarod test (motor coordination)
Description: Motor coordination was examined using an automated rotarod device (Singa; Technology Co., Ltd, Taiwan) for a maximum of 6 mice. A computer recorded the latency to fall in seconds. During two-three days training period, the mice were first trained on the rotarod at a constant speed of 20 rotations per minute (rpm) until all of the mice were able to spend at least 3 min on the road. The test drug (0, 30 and 100 mg/kg) was administered 30 min prior to the ketamine (30 mg/kg) or saline injection. Then, the mice were tested 10, 15, 20, 25, and 30 min after ketamine injection.

[4] = tested on: Male ICR mice; assay: Prepulse inhibition test (PPI) of acoustic startle; settings: for PPI: ketamine 30 mg/kg alone
Description: The PPI was operated as described in our previous work (Chan et al., 2012a). Briefly, the animals were initially moved from the home cage, weighed, and then placed into the restrainers in the SR-LAB (San Diego Instruments, San Diego, Calif., USA) acoustic startle chambers for 30-min habituation. The test drug (0, 30 and 100 mg/kg) was administered 30 min prior to ketamine (30 mg/kg) or saline injection. After administration of ketamine or saline, the experiment started with a 5-min adaptation period during which the animals were exposed to 67-dB background white noise, and this background noise was continued throughout the session. Then, the following adaptation period startle session began with five initial startle stimuli (120 dB bursts of white noise, 40 ms duration). After the first five initial stimuli, mice received five different trial types: pulse alone trials (120 dB bursts of white noise, 40 ms duration), three prepulse and pulse trials in which 76, 81, or 86 dB white noise bursts (9, 14, and 19 dB above background) of 20 ms duration preceded 120 dB pulse by 100 ms prepulse onset to pulse onset, and no-stimuli trials during which only background noise was applied. Each of these trial types was presented five times in randomized order. The inter trial interval was 7-23 s, and the test lasted 15 min in total. Prepulse inhibition was calculated as the percent inhibition of the startle amplitude evoked by the pulse alone: % PPI=(magnitude on pulse alone trial−magnitude on prepulse+pulse trial/magnitude on pulse alone trial)×100.

[5] = tested on: Male ICR mice; assay: Social interaction test
Description: This protocol was modified from the original social interaction test (Lin et al. 2010; Qiao et al. 2001). The social interaction between pairs of mice was examined in an open-field box (35×35×30 cm) under normal room lighting. The paired mice were randomly assigned from different home cages with the same drug treatment. […] Five minutes later, each pair of unfamiliar mice was placed in the apparatus for 10 min and the total time that a pair spent in social interaction and specific social interaction behaviors (sniffing the partner, following, mounting, and crawling under or over the partner) were recorded by an observer who was blind to the drug treatments.

[6] = tested on: Male ICR mice; assay: Loss of righting reflex (LORR)
Description: The test drug betaine (0, 300, and 600 mg/kg) or DMG (0, 100 and 300 mg/kg) was administered 30 min prior to the anesthetic doses of ketamine (100 mg/kg). Then, the mice were placed in a clean cage until the righting reflex was lost. They were then placed in the supine position until recovery and the onset and duration of the loss of righting reflex was recorded. Recovery of the righting reflex was defined as the ability to perform three successive rightings.

[7] = tested on: Male Sprague-Dawley rats; assay: Ketamine intravenous self-administration (IVSA) under progressive ratio (PR) schedule
Description: The dose-dependent effects of betaine and its metabolite DMG on ketamine addiction were evaluated by the intravenous self-administration (IVSA) paradigm under a progressive ratio (PR) schedule. Animals were implanted indwelling catheters flushing of ketamine (0.5 mg/kg/per infusion), termed the training dose, under a FR1 schedule during daily 3-h sessions. After acquisition of stable responding for ketamine (criterion of less than 20% deviation from the mean of the total number of reinforcers earned in three consecutive sessions for each rat), the ketamine reinforcement schedule was changed to FR2 and maintained until responding stabilized at least for 3 days. Then, the PR schedule was conducted. The lever presses required to gain an infusion was determined by: 5×e^(infusion number×0.2)−5 (i.e., 1, 2, 4, 6, 9, […], 15, 20, 25, 32, etc). […] The dose-dependent effects of betaine of self-administration of various doses of ketamine ([…]) were assessed by pretreatment 30 min prior to their daily operant session using a within-subject Latin square design.

[8] = betaine 300 and 600 mg/kg 30 min prior to ketamine 100 mg/kg

SMILES	latency to feed in the NSF ([1]; ketamine 10 mg/kg)	total time spent inside the cylinder ([2]; ketamine 10 mg/kg, post hoc)	latency to stay on the rotarod ([3]; ketamine 30 mg/kg, 10-30 min after administration)	PPI [4]	PPI ([4]; listed as Ketamine)	social interaction duration ([5]; ketamine 30 mg/kg)	loss of righting reflex ([6]; ketamine 100 mg/kg i.p. (anesthetic dose))	ketamine consumption over the dose-response curve ([7]; ketamine 0.1-0.5 mg/kg/infusion, control (vehicle-treated) animals)	latency to feed in the NSF ([1]; betaine 30 mg/kg i.p.)	anxiolytic effect in the emergence test ([2]; betaine 30 and 100 mg/kg)	ketamine-induced motor in coordination ([3]; betaine 30 and 100 mg/kg i.p. 30 min prior to ketamine 30 mg/kg)	ketamine-induced disruption of PPI ([4]; betaine 100 mg/kg pretreatment, ketamine 30 mg/kg)	reduction of PPI ([4]; betaine prior to saline)	reduction in social interaction duration induced by ketamine ([5]; betaine 30 and 100 mg/kg i.p. prior to ketamine 30 mg/kg)	duration of ketamine-induced loss of righting reflex [6, 8]	onset of ketamine-induced loss of righting reflex [6, 8]	reduction of ketamine IVSA ([7]; betaine 100 mg/kg pretreatment, PR schedule)	IVSA of ketamine ([7]; betaine pretreatment (30 and 100 mg/kg), ketamine 0.1-0.5 mg/kg/infusion, PR schedule)	significant effective dose for reduction of ketamine IVSA ([7]; betaine pretreatment, PR schedule)
CNC1(c2ccccc2Cl)CCCCC1=O (racemic) [ketamine]	significantly reduced	significantly reduced	significantly decreased	reduced	significantly reduced	reduction	produced a loss of righting reflex; also recorded: produced LORR	increase											
C[N+](C)(C)CC(=O)O [betaine]									significantly reduced	did not show anxiolytic effect	significantly reduced	significantly attenuated	did not	significantly attenuated	did not affect	did not affect	3-5 times	dose-dependently reduced	30 mg/kg
